Reference: article PMC7486443, “Generation of Phenothiazine with Potent Anti-TLK1 Activity for Prostate Cancer Therapy” (iScience, 2020)

Columns and labels:
Test in all cases: biochemical
Set-up in all cases: DiscoverX KINOMEscan scanMAX competition binding panel, single concentration, percent of control; remaining binding: dose or concentration left out as unconfirmed
Settings in all cases: KINOMEscan binding, percent of control; read-out: Table S4_SCANMAX REPORT - related to Fig. 1 / Percent Control
CASK = CASK (Homo sapiens, UniProt O14936)
CASK, sequence (O14936 whole entry): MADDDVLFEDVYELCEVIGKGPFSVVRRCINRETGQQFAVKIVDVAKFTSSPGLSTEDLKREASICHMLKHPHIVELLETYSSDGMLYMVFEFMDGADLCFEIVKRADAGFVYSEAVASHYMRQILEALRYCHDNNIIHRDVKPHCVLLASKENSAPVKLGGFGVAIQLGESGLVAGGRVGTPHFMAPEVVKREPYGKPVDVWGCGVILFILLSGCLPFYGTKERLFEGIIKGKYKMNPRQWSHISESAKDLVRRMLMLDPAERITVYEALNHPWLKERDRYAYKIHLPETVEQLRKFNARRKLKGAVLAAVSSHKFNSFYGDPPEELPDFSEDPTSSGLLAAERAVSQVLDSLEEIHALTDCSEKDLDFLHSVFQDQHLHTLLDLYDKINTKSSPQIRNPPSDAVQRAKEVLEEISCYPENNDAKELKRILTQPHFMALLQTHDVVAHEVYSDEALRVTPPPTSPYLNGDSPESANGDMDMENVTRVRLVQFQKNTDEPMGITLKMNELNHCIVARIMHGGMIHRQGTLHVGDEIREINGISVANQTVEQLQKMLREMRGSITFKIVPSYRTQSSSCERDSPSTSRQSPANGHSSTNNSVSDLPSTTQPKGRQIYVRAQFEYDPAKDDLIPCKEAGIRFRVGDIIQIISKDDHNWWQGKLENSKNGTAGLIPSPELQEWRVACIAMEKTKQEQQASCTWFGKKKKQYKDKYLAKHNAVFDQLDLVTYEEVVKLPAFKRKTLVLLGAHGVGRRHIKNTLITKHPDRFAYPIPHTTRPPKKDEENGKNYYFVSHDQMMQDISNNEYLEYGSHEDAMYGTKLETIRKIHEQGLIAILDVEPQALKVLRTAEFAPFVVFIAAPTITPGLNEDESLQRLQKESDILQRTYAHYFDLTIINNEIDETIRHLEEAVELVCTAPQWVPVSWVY

CDK3 = CDK3 (Homo sapiens, UniProt Q00526)
CDK3, sequence (Q00526 whole entry): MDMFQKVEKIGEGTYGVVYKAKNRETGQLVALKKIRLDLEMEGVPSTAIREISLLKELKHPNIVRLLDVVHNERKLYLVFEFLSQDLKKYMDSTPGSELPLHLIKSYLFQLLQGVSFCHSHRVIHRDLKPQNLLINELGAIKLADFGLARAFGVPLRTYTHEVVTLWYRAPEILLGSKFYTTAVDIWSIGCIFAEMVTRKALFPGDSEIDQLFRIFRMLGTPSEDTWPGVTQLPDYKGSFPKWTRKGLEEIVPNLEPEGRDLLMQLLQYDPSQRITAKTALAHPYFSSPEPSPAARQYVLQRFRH

CSNK1A1 = CSNK1A1 (Homo sapiens, UniProt P48729)
CSNK1A1, sequence (P48729 whole entry): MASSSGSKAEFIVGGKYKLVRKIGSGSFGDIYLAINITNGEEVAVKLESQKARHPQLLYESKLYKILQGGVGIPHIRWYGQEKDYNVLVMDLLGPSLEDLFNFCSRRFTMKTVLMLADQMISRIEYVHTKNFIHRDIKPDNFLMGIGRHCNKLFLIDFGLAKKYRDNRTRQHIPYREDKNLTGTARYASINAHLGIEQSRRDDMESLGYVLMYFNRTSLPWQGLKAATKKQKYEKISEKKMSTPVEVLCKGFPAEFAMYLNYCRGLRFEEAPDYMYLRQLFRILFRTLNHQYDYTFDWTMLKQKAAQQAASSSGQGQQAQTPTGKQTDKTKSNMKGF

EGFR = EGFR (Homo sapiens, UniProt P00533)
EGFR, sequence (P00533 whole entry): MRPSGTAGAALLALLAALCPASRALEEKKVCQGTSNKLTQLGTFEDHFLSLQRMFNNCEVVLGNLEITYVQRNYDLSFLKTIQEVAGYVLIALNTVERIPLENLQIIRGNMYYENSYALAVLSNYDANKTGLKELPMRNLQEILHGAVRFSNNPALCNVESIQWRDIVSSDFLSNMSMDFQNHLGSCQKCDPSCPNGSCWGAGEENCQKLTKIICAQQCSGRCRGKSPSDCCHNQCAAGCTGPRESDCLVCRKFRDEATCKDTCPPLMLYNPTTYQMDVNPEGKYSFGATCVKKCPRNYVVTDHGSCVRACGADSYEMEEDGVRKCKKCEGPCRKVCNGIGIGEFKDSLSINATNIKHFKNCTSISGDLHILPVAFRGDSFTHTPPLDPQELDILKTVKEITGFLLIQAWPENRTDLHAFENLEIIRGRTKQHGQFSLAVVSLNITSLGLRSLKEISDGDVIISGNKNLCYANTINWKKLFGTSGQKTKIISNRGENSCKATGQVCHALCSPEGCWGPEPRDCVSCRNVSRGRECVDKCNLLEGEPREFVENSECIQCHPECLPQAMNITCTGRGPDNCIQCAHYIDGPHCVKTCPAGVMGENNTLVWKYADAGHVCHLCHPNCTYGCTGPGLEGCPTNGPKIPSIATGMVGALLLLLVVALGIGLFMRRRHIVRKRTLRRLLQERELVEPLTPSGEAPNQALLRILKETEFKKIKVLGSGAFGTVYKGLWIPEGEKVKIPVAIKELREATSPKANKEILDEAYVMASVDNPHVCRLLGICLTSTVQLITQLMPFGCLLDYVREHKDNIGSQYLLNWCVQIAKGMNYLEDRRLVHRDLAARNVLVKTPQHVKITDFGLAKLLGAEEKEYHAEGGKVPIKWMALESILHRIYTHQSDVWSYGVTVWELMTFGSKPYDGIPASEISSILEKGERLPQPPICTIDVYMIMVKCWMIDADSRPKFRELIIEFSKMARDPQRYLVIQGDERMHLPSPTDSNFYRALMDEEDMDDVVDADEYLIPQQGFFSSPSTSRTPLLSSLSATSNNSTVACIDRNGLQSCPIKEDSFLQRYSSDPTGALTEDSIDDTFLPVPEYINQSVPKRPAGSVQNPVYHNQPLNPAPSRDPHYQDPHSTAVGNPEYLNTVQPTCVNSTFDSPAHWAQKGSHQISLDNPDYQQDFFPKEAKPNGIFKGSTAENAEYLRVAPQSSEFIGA

FLT3(ITD) = FLT3(ITD) (Homo sapiens, UniProt P36888, ITD)
FLT3(ITD), sequence (P36888 564-993, change not shown): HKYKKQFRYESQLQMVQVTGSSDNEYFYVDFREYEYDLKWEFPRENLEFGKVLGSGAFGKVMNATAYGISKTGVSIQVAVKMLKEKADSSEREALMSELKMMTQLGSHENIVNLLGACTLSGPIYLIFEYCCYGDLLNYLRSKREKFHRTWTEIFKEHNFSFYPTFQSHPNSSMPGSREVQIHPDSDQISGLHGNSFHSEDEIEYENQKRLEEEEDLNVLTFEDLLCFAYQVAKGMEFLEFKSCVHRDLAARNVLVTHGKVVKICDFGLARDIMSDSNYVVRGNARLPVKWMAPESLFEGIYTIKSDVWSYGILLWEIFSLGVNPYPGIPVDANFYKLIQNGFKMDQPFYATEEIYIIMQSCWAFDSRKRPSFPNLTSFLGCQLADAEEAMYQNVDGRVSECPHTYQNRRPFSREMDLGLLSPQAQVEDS

[1] = target: T1, JAK1(JH1domain-catalytic) (Homo sapiens, UniProt P23458)
T1 construct: JH1domain-catalytic

LIMK1 = LIMK1 (Homo sapiens, UniProt P53667)
LRRK2 = LRRK2 (Homo sapiens, UniProt Q5S007)
MAPKAPK2 = MAPKAPK2 (Homo sapiens, UniProt P49137)
NEK5 = NEK5 (Homo sapiens, UniProt Q6P3R8)
[2] = target: T2, RSK3(Kin.Dom.2-C-terminal) (Homo sapiens, UniProt Q15349)
T2 construct: gene RPS6KA2; Kin.Dom.2-C-terminal

S6K1 = target: T3, S6K1 (Homo sapiens, UniProt P23443)
T3 construct: gene RPS6KB1
T3 sequence (P23443 whole entry): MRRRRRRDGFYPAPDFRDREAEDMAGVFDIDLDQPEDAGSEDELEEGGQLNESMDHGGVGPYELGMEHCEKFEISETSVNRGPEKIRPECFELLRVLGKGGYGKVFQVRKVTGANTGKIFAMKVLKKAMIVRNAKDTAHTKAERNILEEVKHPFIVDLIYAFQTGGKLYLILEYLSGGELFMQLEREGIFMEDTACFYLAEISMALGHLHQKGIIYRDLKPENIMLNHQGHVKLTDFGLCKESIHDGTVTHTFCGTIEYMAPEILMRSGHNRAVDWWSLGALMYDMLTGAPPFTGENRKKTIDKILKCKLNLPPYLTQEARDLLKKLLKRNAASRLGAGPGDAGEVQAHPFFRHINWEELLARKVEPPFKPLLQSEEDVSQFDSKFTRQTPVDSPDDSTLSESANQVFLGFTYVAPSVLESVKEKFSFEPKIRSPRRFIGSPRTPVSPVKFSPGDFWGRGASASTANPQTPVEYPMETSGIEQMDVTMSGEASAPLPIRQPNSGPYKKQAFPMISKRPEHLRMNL

SRC = SRC (Homo sapiens, UniProt P12931)
TAOK3 = TAOK3 (Homo sapiens, UniProt Q9H2K8)
TAOK3, sequence (Q9H2K8 whole entry): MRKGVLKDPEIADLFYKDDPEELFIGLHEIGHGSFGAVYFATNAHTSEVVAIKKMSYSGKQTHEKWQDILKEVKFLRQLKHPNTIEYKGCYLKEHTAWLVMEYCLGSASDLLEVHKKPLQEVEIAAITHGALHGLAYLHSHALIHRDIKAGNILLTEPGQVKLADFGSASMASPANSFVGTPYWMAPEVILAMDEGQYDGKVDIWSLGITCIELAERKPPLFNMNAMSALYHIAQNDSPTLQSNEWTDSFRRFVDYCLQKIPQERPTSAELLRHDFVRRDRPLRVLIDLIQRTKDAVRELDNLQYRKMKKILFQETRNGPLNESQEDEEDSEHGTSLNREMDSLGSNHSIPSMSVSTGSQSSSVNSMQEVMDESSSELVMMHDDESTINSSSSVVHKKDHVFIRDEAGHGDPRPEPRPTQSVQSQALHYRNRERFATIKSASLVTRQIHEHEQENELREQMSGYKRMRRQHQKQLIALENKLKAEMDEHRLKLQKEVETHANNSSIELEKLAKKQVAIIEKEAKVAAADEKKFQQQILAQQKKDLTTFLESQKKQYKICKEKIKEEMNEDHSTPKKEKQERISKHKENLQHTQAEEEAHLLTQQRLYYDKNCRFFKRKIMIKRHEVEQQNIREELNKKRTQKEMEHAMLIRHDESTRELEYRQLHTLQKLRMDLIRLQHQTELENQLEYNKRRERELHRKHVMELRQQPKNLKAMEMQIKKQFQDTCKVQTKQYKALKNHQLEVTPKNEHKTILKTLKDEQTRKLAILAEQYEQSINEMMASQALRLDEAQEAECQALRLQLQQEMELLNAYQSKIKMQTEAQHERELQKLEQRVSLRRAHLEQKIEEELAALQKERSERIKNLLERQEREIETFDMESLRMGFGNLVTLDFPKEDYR

TIE2 = target: T4, TIE2 (Homo sapiens, UniProt Q02763)
T4 construct: gene TEK

TSSK3 = TSSK3 (Homo sapiens, UniProt Q96PN8)
TSSK3, sequence (Q96PN8 whole entry): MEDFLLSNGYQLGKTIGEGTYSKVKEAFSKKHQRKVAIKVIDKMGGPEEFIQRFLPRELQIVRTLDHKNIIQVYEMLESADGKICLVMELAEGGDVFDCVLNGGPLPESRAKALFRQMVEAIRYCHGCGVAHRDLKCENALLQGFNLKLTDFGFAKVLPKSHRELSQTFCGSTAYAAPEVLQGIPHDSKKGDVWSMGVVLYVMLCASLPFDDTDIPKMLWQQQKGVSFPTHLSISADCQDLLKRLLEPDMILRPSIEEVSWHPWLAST

VPS34 = target: T5, VPS34 (Homo sapiens, UniProt Q8NEB9)
T5 construct: gene PIK3C3

WEE1 = WEE1 (Homo sapiens, UniProt P30291)

For `c1ccc2c(c1)Sc1ccccc1N2CCN1CCOCC1` [J54], the remaining binding (CASK) was 100%, the remaining binding (CDK3) was 89% and the remaining binding (CSNK1A1) was 100%. It also gave a remaining binding (EGFR) of 92%, a remaining binding (FLT3(ITD)) of 68% and a remaining binding [1] of 100%. It also gave a remaining binding (LIMK1) of 100%, a remaining binding (LRRK2) of 100% and a remaining binding (MAPKAPK2) of 100%. For the same compound, the remaining binding (NEK5) was 70%, the remaining binding [2] was 97% and the remaining binding (S6K1) was 100%. It also gave a remaining binding (SRC) of 96%, a remaining binding (TAOK3) of 100% and a remaining binding (TIE2) of 76%. The remaining binding (TSSK3) was 87%, the remaining binding (VPS34) was 86% and the remaining binding (WEE1) was 78%.
